The star is where a group is joined. Palmitoyl = CCCCCCCCCCCCCCCC(=O)*; NHhexadecyl = CCCCCCCCCCCCCCCCN*; NHHex = CCCCCCN*

16 molecules from patent publication US11896704B2, “Compounds useful for the treatment and/or care of the skin, hair, nails and/or mucous membranes” (LUBRIZOL ADVANCED MATERIALS, INC., priority 2017, dated 2024) can be followed below.

One assay deals with mitochondrial complex I (NADH dehydrogenase). The assay is described as follows: Mitochondrial complex I activity in human dermal fibroblasts, colorimetric assay. In kind it is cell-based. Particulars: HDFa, 10 mM, 48 hours, positive control. As for the experimental part: Inhibition of Mitochondrial Complex I Activity Using an Assay Based on Colorimetric Detection. Human Dermal Fibroblasts from adult (HDFa, Life Technologies) are seeded at a density of 750.000 cells/75 cm^2 flask (one flask per condition) in culture medium M106 with Low Serum Growth Supplement (Life Technologies). Cells are grown during 8 days at 37° C. in 5% CO2 humidified air. Then, medium is removed and cells are treated with scalar dilutions of the peptide […] (PEP-1, H-[SEQ ID. NO. 2]-NH2) at 1, 0.5 and 0.1 mg/ml in culture medium during 48 hours at 37° C. in 5% CO2 humidified air. Non-treated cells incubated in culture medium alone are used as basal conditions. […] After 48 hours of treatment, cells are detached using trypsin and resuspended in 60 ul of Phosphate buffer saline (Sigma). Total protein concentration is measured by a Pierce BCA Protein Assay Kit (BCA Assay, Thermo Scientific) following manufacturer's protocol to adjust the final protein concentration between 700-1000 ug/ml. Briefly, standards and samples are dispensed and Working Reagent is added to the samples. After 30 minutes of incubation at 37° C., absorbance is measured with a microplate reader (Clariostar®, BMG) at 562 nm. Mitochondrial complex I activity is measured with Complex I enzyme activity microplate assay Kit (Abcam) according to the manufacture's protocol. This assay follows the oxidation of NADH to NAD coupled to the reduction of a specific colorimetric dye, leading to an increase in absorbance at 450 nm. In brief, 200 ul of each sample (adjusted to 700-1000 ug/ml of total protein amount) is incubated for 3 hours. After that, wells are washed several times and incubated with Assay Solution provided with the kit (composed by NADH and the specific dye). For the determination of mitochondrial complex I activity, colorimetric increase of Optical Density (OD) at 450 nm in a kinetic reaction along 1 hour is measured with a microplate reader (Clariostar©, BMG). Results are calculated as the rate of increase in OD at 450 nm between two points in the linear zone over time. The percentage of mitochondrial complex I activity relative to basal conditions after the treatment with […] (PEP-1, H-[SEQ ID. NO. 2]-NH2) is represented in Table 9. These values represent the mean for at least three independent assays.
For `CN(C)C(=N)N=C(N)N` [Metformin, reference compound], the “Percentage of mitochondrial complex I activity relative to basal condition (%)” value is 63.61%.

Another assay deals with JARID1A gene. The assay can be described thus: JARID1A gene expression in synchronized human epidermal keratinocytes (HEKa), real time PCR arrays. The note with it: 0.005 mg/ml, one experiment. The format is cell-based. As for the experimental part:
In Vitro Study of JARID1A Gene Expression in Synchronized Human Epidermal Keratinocytes from Adult (HEKa) Using Real Time PCR Arrays.
HEKa cells (Life Technologies) are seeded at 3.0×10^5 cells/well in 12-well plates (2 wells per condition) and incubated in culture medium, Keratinocyte growth medium supplemented with Mix C39016-CaCl2 solution (Promocell). For synchronization, cells were subjected to two alternative cycles of 12 hours each at 37° C. in 5% CO2 humidified air (day mode) and 33° C. in 5% CO2 humidified air (night mode). 12 hours after starting synchronization, cells are incubated with the peptides at 0.5 mg/ml or (5 μg/ml) in culture medium, depending on the toxicity effects of each peptide (non-toxic conditions are selected). Cells treated with medium alone are used as basal condition.
At the end of synchronization, cell lysates are collected at two different times: 7:30 hour (early morning point) and 11:30 hour (midday point). Briefly, cells are lysed directly in the wells, and RNA is purified following the protocol described on the RNeasy™ Mini kit (Qiagen) according to the manufacture's protocol. After RNA elution, quantification and analysis of purity of RNA samples are performed with a nanodrop (Thermo). For each sample, 3 μg of high quality RNA is retrotranscribed with iScript Advanced™ (BioRad) in a final volume of 20 μl. Complete reaction mix is incubated in a thermal cycler (Eppendorf) at 42° C. for 30 minutes, and the reaction is stopped at 85° C. for 5 minutes. Complementary DNA is amplified by qPCR in a real-time PCR thermocycler (BioRad) using SYBR Green Supermix™ (BioRad) in the 96-well plate for use with SYBR® Green (BioRad). SYBR Green binds to double-stranded DNA molecules and emits fluorescence which is quantified, and the fluorescence intensity is proportional to the amount of the product in the PCR reaction. Cycling conditions in BioRad CFX96™ instrument are: 95° C. for 3 minutes, followed by 40 cycles of denaturing at 95° C. for 5 seconds, annealing and elongation at 60° C. for 30 seconds. GAPDH (Glyceraldehyde 3-phosphate dehydrogenase), TBP (TATA box binding protein) and HRPT1 (hypoxanthine phosphoribosyltransferase 1) are used as endogenous controls. Fold change relative to the expression of the sample genes and reference genes is calculated using normalized expression (AA(Ct)) method using CFX Manager Software™ (BioRad).
Fold induction of JARID1A gene at 7:30 hour with respect to basal conditions at 7:30 hour for the samples tested are shown in Table 7. The data for fold induction represent the value of one experiment.
(In general: Quantitative PCR measures a nucleic acid by following its amplification.)
For the molecule “Palm-Phe-Trp-Met-Lys-Arg-Lys-Arg-Val-Pro-NH2 (Palmitoyl-FWMKRKRVP-NH2; SMILES CCCCCCCCCCCCCCCC(=O)N[C@@H](Cc1ccccc1)C(=O)N[C@@H](Cc1c[nH]c2ccccc12)C(=O)N[C@@H](CCSC)C(=O)N[C@@H](CCCCN)C(=O)N[C@@H](CCCNC(=N)N)C(=O)N[C@@H](CCCCN)C(=O)N[C@@H](CCCNC(=N)N)C(=O)N[C@H](C(=O)N1CCC[C@H]1C(N)=O)C(C)C) [PEP-2]”, the “Fold induction with respect to Basal condition at 7:30h (%)” value (“Fold induction … (%)” for short) was 122.22%.
Still for that read-out and setting: as for “Palm-Phe-Trp-Met-Lys-Arg-Lys-Arg-Val-Pro-OH (Palmitoyl-FWMKRKRVP-OH; SMILES CCCCCCCCCCCCCCCC(=O)N[C@@H](Cc1ccccc1)C(=O)N[C@@H](Cc1c[nH]c2ccccc12)C(=O)N[C@@H](CCSC)C(=O)N[C@@H](CCCCN)C(=O)N[C@@H](CCCNC(=N)N)C(=O)N[C@@H](CCCCN)C(=O)N[C@@H](CCCNC(=N)N)C(=O)N[C@H](C(=O)N1CCC[C@H]1C(=O)O)C(C)C) [PEP-5]”, the figure is 121.55%.

The assay is the same for the next values; noted with them: 0.5 mg/ml, one experiment.
Regarding “H-Phe-Trp-Met-Lys-Arg-Lys-Arg-Val-Pro-NHC6H13 (H-FWMKRKRVP-NHHex; SMILES CCCCCCNC(=O)[C@@H]1CCCN1C(=O)[C@@H](NC(=O)[C@H](CCCNC(=N)N)NC(=O)[C@H](CCCCN)NC(=O)[C@H](CCCNC(=N)N)NC(=O)[C@H](CCCCN)NC(=O)[C@H](CCSC)NC(=O)[C@H](Cc1c[nH]c2ccccc12)NC(=O)[C@@H](N)Cc1ccccc1)C(C)C) [PEP-7]”, the “Fold induction … (%)” value was 159.64%.
In the case of “H-Phe-Trp-Ile-Gln-Arg-Lys-His-Met-Pro-NH2 (H-FWIQRKHMP-NH2) [PEP-10]”, the “Fold induction … (%)” value is reported as 138.09%.
The same measure, in the same setting: the value for “H-Phe-Trp-Met-Lys-Arg-Lys-Lys-Val-Pro-NH2 (H-FWMKRKKVP-NH2) [PEP-13]” was 147.62%; that for “H-Phe-Trp-Met-Lys-Arg-Lys-Arg-Ile-Pro-NH2 (H-FWMKRKRIP-NH2) [PEP-14]” was 187.65%; that for “H-Phe-Trp-Leu-Arg-Arg-Lys-Lys-Ile-Pro-NH2 (H-FWLRRKKIP-NH2) [PEP-9]” was 141.90%.
Still for that read-out and setting: the value for “Ac-Phe-Trp-Met-Lys-Arg-Lys-Arg-Val-Pro-OH (Ac-FWMKRKRVP-OH) [PEP-6]” was 109.08%; that for “H-Phe-Trp-Leu-Lys-Arg-Lys-Arg-Val-Pro-NH2 (H-FWLKRKRVP-NH2) [PEP-11]” was 127.91%; that for “H-Phe-Trp-Met-Arg-Arg-Lys-Arg-Val-Pro-NH2 (H-FWMRRKRVP-NH2) [PEP-12]” was 203.75%.
Still for that read-out and setting: as for “Ac-Phe-Trp-Met-Lys-Arg-Lys-Arg-Val-Pro-NH2 (Ac-FWMKRKRVP-NH2) [PEP-3]”, the figure is 126.63%.
In the case of “H-Phe-Trp-Met-Lys-Arg-Lys-Arg-Leu-Pro-NH2 (H-FWMKRKRLP-NH2) [PEP-15]”, the “Fold induction … (%)” value stood at 123.90%.
Still for that read-out and setting: as for “H-Phe-Trp-Met-Lys-Arg-Lys-Arg-Val-Pro-OH (H-FWMKRKRVP-OH) [PEP-4]”, the figure is 158.92%; as for “H-Phe-Trp-Met-Lys-Arg-Lys-Arg-Val-Pro-NHC16H33 (H-FWMKRKRVP-NHhexadecyl; SMILES CCCCCCCCCCCCCCCCNC(=O)[C@@H]1CCCN1C(=O)[C@@H](NC(=O)[C@H](CCCNC(=N)N)NC(=O)[C@H](CCCCN)NC(=O)[C@H](CCCNC(=N)N)NC(=O)[C@H](CCCCN)NC(=O)[C@H](CCSC)NC(=O)[C@H](Cc1c[nH]c2ccccc12)NC(=O)[C@@H](N)Cc1ccccc1)C(C)C) [PEP-8]”, 113.64%.

In another assay the test system is Human Dermal Fibroblasts (HDFa). The assay is described as follows: Reactive oxygen species (ROS) levels in HDFa, fluorescence. In kind it is cell-based. The note with it: 0.05 mM, 30 min, positive control. As for the experimental part: Evaluation of Reactive Oxygen Species (ROS) Levels on Human Dermal Fibroblasts (HDFa) by a Fluorescence Approach. Human Dermal Fibroblasts from adult (HDFa, Life Technologies) are seeded at a density of 10,000 cells/well (3 wells per condition) in 96-well plates in culture medium M106 with Low Serum Growth Supplement (LSGS, Life Technologies). Cells are grown during 24 hours at 37° C. in 5% CO2 humidified air. Then, medium is removed and cells are treated with the peptide […] (PEP-1, H-[SEQ ID. NO. 2]-NH2) during 16 hours at 37° C. in 5% CO2 humidified air. Non-treated cells incubated in treatment medium alone are used as basal conditions. […] After 30 min at 37° C. in 5% CO2 humidified air, cells are used to quantify ROS levels. ROS levels are quantified using a Cellular Reactive Oxygen Species Detection Assay Kit (Abcam) according to the manufacture's protocol. […] After the period of time, fluorescence signal is determined using Operetta® confocal microscope (PerkinElmer, Inc). Fluorescence intensities are measured using Mitotracker OrangeTM channel (Excitation Filter: 520-550 nm/Emission Filter: 560-630 nm) and are corrected by the determination of the number of nuclei per well. […]
`OO` [Hydrogen peroxide, Hydrogen Peroxide]: the “Percentage of ROS level relative to basal control conditions (%)” value worked out at 1309.23%.
